In one test the target is T1, ROCK2 (Homo sapiens, UniProt O75116).
T1 construct: N-terminal 6His-tagged ROCK2 catalytic domain 11-552; 6His (N); purchased Dundee University, UK; host or cells: baculovirus expression system
In words: ROCK2 inhibition assay (ADP-Glo kinase assay, called ROCK2 binding activity). It is filed as biochemical. The settings on record: 20 μM ATP, 1 hour pre-incubation, read-out: ROCK 2 (IC50 category). The method, then:
ROCK2 Binding Activity: Assay for ROCK2 inhibition was performed using the protein construct N-terminal 6His-tagged ROCK2 catalytic domain 11-552 (Dundee University, UK). Protein was purified from a baculovirus expression system. Long S6 peptide ([…]) was used as substrate. Kinase reactions were carried out in 15 μl volume in a 96-well plate (black, half area) using 1.25 nM constitutively active ROCK2 kinase, 100 μM long S6 peptide, 20 μM ATP and test compound in DMSO (or DMSO only for controls). The final concentration of DMSO was 1%. Assay buffer was 50 mM HEPES pH 7.5 supplemented with 0.2 mM EDTA, 10 mM magnesium acetate, 0.01% Tween-20, 1 mM DTT and 0.01% BSA. Test compounds were pre-incubated with ROCK2 kinase for 1 hour before addition of ATP and long S6 peptide. After incubation for a further 1 hour, the amount of ADP produced was measured using ADP-Glo Kinase Assay (Promega) as per manufacturer's instructions. The luminescence was measured on a PHERAstar FS (BMG Labtech). The concentration of test compound required to inhibit ADP production by 50% (the IC50) was calculated using a four-parameter logistic function with software by Dotmatics. […] The category “+” refers to compounds with a ROCK2 or ROCK1 IC50 value of >10 μM. The category “++” refers to compounds with a ROCK2 or ROCK1 IC50 value of 10 to 3 μM. The category “+++” refers to compounds with a ROCK1 or ROCK2 IC50 value of 3 to 0.3 μM. The category “++++” refers to compounds with a ROCK1 or ROCK2 IC50 value of <0.3 μM.

The next test deals with ROCK1 (Homo sapiens, UniProt Q13464). The test is described as follows: ROCK1 inhibition assay (ROCK1 binding activity, as determined by the assay described for ROCK2). The format is biochemical. The settings on record: read-out: ROCK 1 (IC50 category). Here is the method:
Assay for ROCK2 inhibition was performed using the protein construct N-terminal 6His-tagged ROCK2 catalytic domain 11-552 (Dundee University, UK). Protein was purified from a baculovirus expression system. Long S6 peptide ([…]) was used as substrate. Kinase reactions were carried out in 15 μl volume in a 96-well plate (black, half area) using 1.25 nM constitutively active ROCK2 kinase, 100 μM long S6 peptide, 20 μM ATP and test compound in DMSO (or DMSO only for controls). The final concentration of DMSO was 1%. Assay buffer was 50 mM HEPES pH 7.5 supplemented with 0.2 mM EDTA, 10 mM magnesium acetate, 0.01% Tween-20, 1 mM DTT and 0.01% BSA. Test compounds were pre-incubated with ROCK2 kinase for 1 hour before addition of ATP and long S6 peptide. After incubation for a further 1 hour, the amount of ADP produced was measured using ADP-Glo Kinase Assay (Promega) as per manufacturer's instructions. The luminescence was measured on a PHERAstar FS (BMG Labtech). The concentration of test compound required to inhibit ADP production by 50% (the IC50) was calculated using a four-parameter logistic function with software by Dotmatics. […] The category “+” refers to compounds with a ROCK2 or ROCK1 IC50 value of >10 μM. The category “++” refers to compounds with a ROCK2 or ROCK1 IC50 value of 10 to 3 μM. The category “+++” refers to compounds with a ROCK1 or ROCK2 IC50 value of 3 to 0.3 μM. The category “++++” refers to compounds with a ROCK1 or ROCK2 IC50 value of <0.3 μM.

T1 sequence (O75116 11-552): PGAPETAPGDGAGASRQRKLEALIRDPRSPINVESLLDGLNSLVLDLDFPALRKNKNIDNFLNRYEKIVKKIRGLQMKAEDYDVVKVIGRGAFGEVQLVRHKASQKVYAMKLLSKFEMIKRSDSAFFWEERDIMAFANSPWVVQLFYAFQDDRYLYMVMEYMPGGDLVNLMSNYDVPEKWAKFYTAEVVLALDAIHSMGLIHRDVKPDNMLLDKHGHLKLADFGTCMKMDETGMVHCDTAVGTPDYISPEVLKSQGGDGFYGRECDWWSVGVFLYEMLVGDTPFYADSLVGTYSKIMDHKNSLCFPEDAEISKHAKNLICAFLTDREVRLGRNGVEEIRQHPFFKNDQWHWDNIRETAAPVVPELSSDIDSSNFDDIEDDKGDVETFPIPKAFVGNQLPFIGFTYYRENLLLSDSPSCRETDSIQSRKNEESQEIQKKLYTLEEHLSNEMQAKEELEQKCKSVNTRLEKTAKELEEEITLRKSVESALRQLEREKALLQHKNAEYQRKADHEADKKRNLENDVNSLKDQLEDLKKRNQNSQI
Sequence of ROCK1 (Q13464 whole entry, the tested form may be a part): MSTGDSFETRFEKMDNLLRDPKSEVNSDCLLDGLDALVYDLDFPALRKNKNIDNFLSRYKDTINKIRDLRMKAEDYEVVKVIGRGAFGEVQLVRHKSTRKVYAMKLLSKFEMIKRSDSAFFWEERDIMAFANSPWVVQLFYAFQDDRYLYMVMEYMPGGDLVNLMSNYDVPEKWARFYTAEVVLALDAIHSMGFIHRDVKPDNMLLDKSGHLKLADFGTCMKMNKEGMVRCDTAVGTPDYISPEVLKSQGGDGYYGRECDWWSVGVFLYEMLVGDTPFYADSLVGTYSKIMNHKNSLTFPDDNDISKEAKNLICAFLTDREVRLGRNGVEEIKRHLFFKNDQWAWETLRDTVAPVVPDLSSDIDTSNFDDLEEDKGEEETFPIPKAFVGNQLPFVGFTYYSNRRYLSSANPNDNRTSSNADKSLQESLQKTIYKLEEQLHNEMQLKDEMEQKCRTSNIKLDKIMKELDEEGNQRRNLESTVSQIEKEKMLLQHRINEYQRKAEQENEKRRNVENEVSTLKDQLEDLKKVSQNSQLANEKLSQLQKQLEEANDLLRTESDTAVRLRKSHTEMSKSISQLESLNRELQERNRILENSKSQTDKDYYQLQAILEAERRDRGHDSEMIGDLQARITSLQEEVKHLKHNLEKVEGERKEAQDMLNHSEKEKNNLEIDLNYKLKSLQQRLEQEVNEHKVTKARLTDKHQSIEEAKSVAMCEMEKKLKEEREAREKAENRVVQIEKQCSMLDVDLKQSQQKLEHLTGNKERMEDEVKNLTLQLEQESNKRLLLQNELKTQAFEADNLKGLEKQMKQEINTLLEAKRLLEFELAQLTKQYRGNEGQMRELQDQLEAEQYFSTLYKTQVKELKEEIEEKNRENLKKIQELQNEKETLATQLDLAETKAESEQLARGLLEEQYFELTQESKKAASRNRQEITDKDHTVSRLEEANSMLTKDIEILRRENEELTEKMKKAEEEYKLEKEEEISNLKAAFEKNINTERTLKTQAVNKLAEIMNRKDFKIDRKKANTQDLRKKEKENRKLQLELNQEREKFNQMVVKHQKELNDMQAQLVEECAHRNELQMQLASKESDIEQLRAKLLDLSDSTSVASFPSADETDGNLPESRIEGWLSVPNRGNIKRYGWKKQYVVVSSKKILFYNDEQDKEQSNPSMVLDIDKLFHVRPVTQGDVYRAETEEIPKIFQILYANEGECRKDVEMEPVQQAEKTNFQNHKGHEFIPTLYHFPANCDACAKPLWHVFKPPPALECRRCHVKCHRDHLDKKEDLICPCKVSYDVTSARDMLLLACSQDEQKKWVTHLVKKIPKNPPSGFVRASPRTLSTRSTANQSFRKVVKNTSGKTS

Consider `CCn1nc(-c2ccc(-c3ccc(C)nc3)cc2)nc1Nc1cc2c(cc1C)C(=O)NC2C` (single isomer, unassigned) [Example 78], for which the IC50 at ROCK2 was below 0.3 µM; on ROCK1, 3 to 10 µM.

With `CCn1nc(-c2ccc(-c3ccc(C)nc3)cc2)nc1Nc1cc2c(cc1C)C(=O)NC2C` (single isomer, unassigned) [Example 84], the IC50 was below 0.3 µM on ROCK2 and 3 to 10 µM on ROCK1.

Regarding `Cc1cn(-c2ccc(-c3nc(Nc4ccc5c(c4)CNC5=O)n(C)n3)cc2)cn1` [Example 1], the IC50 was below 0.3 µM at ROCK2 and above 10 µM at ROCK1.

For the molecule `CCc1cn(-c2ccc(-c3nc(Nc4ccc5c(c4)CNC5=O)n(C)n3)cc2)c(C)n1` [Example 2], the IC50 at ROCK2 is below 0.3 µM; at ROCK1, above 10 µM.

Regarding `Cc1nc(C2CC2)cn1-c1ccc(-c2nc(Nc3ccc4c(c3)CNC4=O)n(C)n2)cc1` [Example 3], the results for the IC50 on ROCK2 and at ROCK1 were below 0.3 µM and above 10 µM, respectively.

As for `CCn1nc(-c2ccc(-n3cc(C4CC4)nc3C)cc2)nc1Nc1ccc2c(c1)CNC2=O` [Example 4], the IC50 on ROCK2 was below 0.3 µM; on ROCK1, 3 to 10 µM.

For `Cn1nc(-c2ccc(-c3ccnc(C(F)(F)F)c3)cc2)nc1Nc1ccc2c(c1)CNC2=O` [Example 5], the IC50 at ROCK2 was below 0.3 µM; on ROCK1 it was 3 to 10 µM.

In the case of `Cn1nc(-c2ccc(C(=O)NCC(F)(F)F)cc2)nc1Nc1ccc2c(c1)CNC2=O` [Example 6], the IC50 at ROCK2 was below 0.3 µM; at ROCK1, above 10 µM.

Consider `Cn1nc(-c2ccc(C(=O)NCC(F)F)cc2)nc1Nc1ccc2c(c1)CNC2=O` [Example 7], for which the IC50 is 3 to 10 µM at ROCK2 and above 10 µM on ROCK1.

For the molecule `CCn1nc(-c2ccc(-n3cc(C4CC4)nc3C)cc2)nc1Nc1ccc2c(c1C)CNC2=O` [Example 8], the IC50 on ROCK2 was below 0.3 µM; on ROCK1, above 10 µM.

As for `Cn1nc(-c2cccc(C(=O)NCC(F)(F)F)c2)nc1Nc1ccc2c(c1)CNC2=O` [Example 9], the IC50 is 3 to 10 µM on ROCK2 and above 10 µM on ROCK1.

In the case of `Cn1nc(-c2ccc(-c3ccc(C(F)(F)F)nc3)cc2)nc1Nc1ccc2c(c1)CNC2=O` [Example 10], the figures for the IC50 at ROCK2 and at ROCK1 were below 0.3 µM and above 10 µM, respectively.

Regarding `CCn1nc(-c2ccc(-c3cnc(C4CC4)n3C)cc2)nc1Nc1ccc2c(c1C)CNC2=O` [Example 11], the IC50 on ROCK2 was 3 to 10 µM; at ROCK1, above 10 µM.

As for `Cc1cc(-c2nc(Nc3ccc4c(c3C)CNC4=O)n(C)n2)ccc1-c1cnc(C2CC2)n1C` [Example 12], the IC50 on ROCK2 is 3 to 10 µM; on ROCK1, above 10 µM.

For `Cc1cc(-c2nc(Nc3ccc4c(c3C)CNC4=O)n(C)n2)ccc1-n1cnc(C2CC2)c1` [Example 13], the IC50 on ROCK2 was below 0.3 µM; at ROCK1, above 10 µM.

`Cn1nc(-c2ccc(-n3cnc(C4CC4)c3)cc2)nc1Nc1ccc2c(c1)CNC2=O` [Example 14]: the IC50 was below 0.3 µM on ROCK2 and above 10 µM on ROCK1.

Consider `CCn1nc(-c2ccc(-c3ccc(C)nc3)cc2)nc1Nc1ccc2c(c1)CNC2=O` [Example 15], for which the results for the IC50 on ROCK2 and on ROCK1 were below 0.3 µM and 3 to 10 µM, respectively.

`Cn1nc(-c2ccc(-n3cnc(C4CC4)c3)cc2)nc1Nc1ccc2c(c1)C(C)(C)NC2=O` [Example 16]: the IC50 is below 0.3 µM on ROCK2 and above 10 µM on ROCK1.

In the case of `Cc1nc(C2CC2)cn1-c1ccc(-c2nc(Nc3ccc4c(c3)C(C)(C)NC4=O)n(C)n2)cc1` [Example 17], the IC50 on ROCK2 was 3 to 10 µM; on ROCK1, above 10 µM.

Regarding `CCn1nc(-c2ccc(-n3cc(C4CC4)nc3C)cc2)nc1Nc1ccc2c(c1)C(C)(C)NC2=O` [Example 18], the IC50 at ROCK2 is 3 to 10 µM; on ROCK1, above 10 µM.

With `CCn1nc(-c2ccc(-n3cnc(C4CC4)c3)cc2)nc1Nc1ccc2c(c1)C(C)(C)NC2=O` [Example 19], the half-inhibitory concentration (IC50) at ROCK2 is below 0.3 µM; at ROCK1, above 10 µM.

As to `CCn1nc(-c2ccc(-c3ccc(C4CC4)nc3)cc2)nc1Nc1ccc2c(c1)CNC2=O` [Example 20], the IC50 at ROCK2 is below 0.3 µM; on ROCK1, 3 to 10 µM.

Turning to `CCn1nc(-c2ccc(-n3cnc(C4CC4)c3)cc2)nc1Nc1ccc2c(c1)C(C)NC2=O` (stereo not drawn) [Example 21], the IC50 at ROCK2 was below 0.3 µM; at ROCK1 it was 3 to 10 µM.

For the molecule `CCn1nc(-c2ccc(-n3cc(C4CC4)nc3C)cc2)nc1Nc1ccc2c(c1)C(C)NC2=O` (stereo not drawn) [Example 22], the half-maximal inhibitory concentration (IC50) is below 0.3 µM at ROCK2 and 3 to 10 µM at ROCK1.

Take `CCn1nc(-c2ccc(-n3cnc(C4CC4)c3)cc2)nc1Nc1ccc2c(c1)C1(CC1)NC2=O` [Example 23]: the half-inhibitory concentration (IC50) is below 0.3 µM on ROCK2 and above 10 µM at ROCK1.

Consider `CCn1nc(-c2ccc(-n3cnc(C4CC4)c3)cc2)nc1Nc1ccc2c(c1)CNC2=O` [Example 24], for which the IC50 at ROCK2 was below 0.3 µM; on ROCK1, 3 to 10 µM.

Take `CCn1nc(-c2ccc(-c3cnc(C4CC4)n3C)cc2)nc1Nc1ccc2c(c1)CNC2=O` [Example 25]: the IC50 at ROCK2 was below 0.3 µM; at ROCK1 it was 3 to 10 µM.

As for `CCn1nc(-c2ccc(-c3ccnc(C)c3)c(C)c2)nc1Nc1ccc2c(c1)CNC2=O` [Example 26], the IC50 is below 0.3 µM on ROCK2 and 3 to 10 µM at ROCK1.

Regarding `CCn1nc(-c2ccc(-c3ccc(C)cn3)cc2)nc1Nc1ccc2c(c1)CNC2=O` [Example 27], the figures for the IC50 on ROCK2 and at ROCK1 were below 0.3 µM and 3 to 10 µM, respectively.

Turning to `CCn1nc(-c2ccc(-c3ccccn3)cc2)nc1Nc1ccc2c(c1)CNC2=O` [Example 28], the IC50 on ROCK2 was below 0.3 µM; on ROCK1 it was 3 to 10 µM.

For the molecule `CCn1nc(-c2ccc(-c3cccnc3)cc2)nc1Nc1ccc2c(c1)CNC2=O` [Example 29], the half-maximal inhibitory concentration (IC50) on ROCK2 was below 0.3 µM; on ROCK1, 3 to 10 µM.

In the case of `CCn1nc(-c2ccc(-c3ccncc3)cc2)nc1Nc1ccc2c(c1)CNC2=O` [Example 30], the IC50 on ROCK2 was below 0.3 µM; at ROCK1, 3 to 10 µM.

As to `CCn1nc(-c2ccc(-c3ccc(C)nc3)c(C)c2)nc1Nc1ccc2c(c1)CNC2=O` [Example 31], the IC50 on ROCK2 is below 0.3 µM; at ROCK1 it was 3 to 10 µM.

For `CCn1nc(-c2ccc(-c3ccnc(C4CC4)c3)c(C)c2)nc1Nc1ccc2c(c1)CNC2=O` [Example 32], the IC50 at ROCK2 and on ROCK1 was below 0.3 µM throughout.

With `CCn1nc(-c2ccc(-c3ccnc(C4CC4)c3)c(F)c2)nc1Nc1ccc2c(c1)CNC2=O` [Example 33], the IC50 at ROCK2 was below 0.3 µM; at ROCK1, 3 to 10 µM.

With `CCn1nc(-c2ccc(-c3ccnc(C)c3)c(F)c2)nc1Nc1ccc2c(c1)CNC2=O` [Example 34], the IC50 at ROCK2 was below 0.3 µM; on ROCK1, 3 to 10 µM.

On to `CCn1nc(-c2ccc(-c3ccc(C)nc3)cc2)nc1Nc1ccc2c(c1)CN(C)C2=O` [Example 35], for which the IC50 at ROCK2 is 3 to 10 µM; at ROCK1 it was above 10 µM.

With `CCn1nc(-c2ccc(-c3ccc(C)nc3)c(OC)c2)nc1Nc1ccc2c(c1)CNC2=O` [Example 36], the IC50 at ROCK2 and on ROCK1 was below 0.3 µM throughout.

Regarding `CCn1nc(-c2ccc(-c3ccc(C4CC4)nc3)c(F)c2)nc1Nc1ccc2c(c1)CNC2=O` [Example 37], the results for the IC50 at ROCK2 and on ROCK1 were below 0.3 µM and above 10 µM, respectively.

Turning to `CCn1nc(-c2ccc(-c3ccc(C)nc3)nc2)nc1Nc1ccc2c(c1)CNC2=O` [Example 39], the 50% inhibitory concentration (IC50) at ROCK2 is below 0.3 µM; on ROCK1 it was above 10 µM.

Turning to `CCn1nc(-c2ccc(-c3ccc(C4CC4)nc3)c(C)c2)nc1Nc1ccc2c(c1)CNC2=O` [Example 40], the IC50 is below 0.3 µM at ROCK2 and above 10 µM at ROCK1.

As to `CCn1nc(-c2ccc(-c3ccc(C)nc3)cc2)nc1Nc1cc2c(cc1C)C(=O)NC2C` (stereo not drawn) [Example 41], the figures for the IC50 on ROCK2 and on ROCK1 were below 0.3 µM and 3 to 10 µM, respectively.

(Values after US20250122173A1, “MODULATORS OF RHO-ASSOCIATED PROTEIN KINASE” (Redx Pharma Limited, priority 2022, published 2025).)
